Measured values from patent US6319916A, “Heterocyclic compounds, their production and use” (Takeda Chemical Industries, Ltd., priority 1992, dated 2001).
Structures can show the parent of a compound that is named as a salt.

Test system: mice
Assay: Antidepressant activity, tail suspension test
Format: in vivo, ICR male mice
Conditions: 30 mg/kg, oral; thirty minutes later suspended on tails for 10 minutes; **P < 0.01; saline 49.45 ± 2.47
Description: The antidepressant activity of the compound of the present invention was assayed by means of tail suspension test using ICR male mice (five weeks of age, weighing 23.5 to 37.6 g) as test animals. […]. Thirty minutes later, the mice were suspended on tails for 10 minutes and immobility thereof (% control) was measured. The antidepressant activity of the test compound was shown as in percent control of immobility. As a comparative compound, desipramine, which is known to have an antidepressant activity, was employed and the immobility thereof was measured in the same manner as described above.

Row | Structure (SMILES) | Immobility [%]
1 | Cl.Cl.O=C(CCC1CCN(Cc2ccccc2)CC1)c1ccc2c(c1)CN(Cc1ccccc1)CCO2 [3-B, 1-[4-(Phenylmethyl)-2,3,4,5-tetrahydro-1,4-benzoxazepin-7-yl]-3-[1-(phenylmethyl)piperidin-4-yl]-1-propanone dihydrochloride] | 34.37 ± 4.49
2 | CNCCCN1c2ccccc2CCc2ccccc21 [desipramine, reference compound] | 37.25 ± 3.32

Target: T1, Acetylcholinesterase (Rattus norvegicus, UniProt P37136)
T1 construct: S1 fraction of a homogenate of male Wistar rat cerebral cortex as the cholinesterase source; from tissue; host or cells: male Wistar rat cerebral cortex, S1 fraction of homogenate
Assay: Cholinesterase inhibitory activity with (acetyl[^3 H])-acetylcholine
Format: biochemical
Conditions: S1 fraction of homogenate of male Wistar rat cerebral cortex; 30 minutes incubation
Description: The cholinesterase inhibitory activity of the compound of this invention was assayed with (acetyl[^3 H])-acetylcholine. More specifically, (acetyl[^3 H])-acetylcholine as the substrate and the compound of this invention as the test sample were added to the S1 fraction of a homogenate of male Wistar rat cerebral cortex as the cholinesterase source. The mixture was incubated for 30 minutes, after completion of the reaction, to the reaction mixture was added a toluene-based scintillator, and the mixture was shaken. The reaction product [^3 H]-acetic acid was transferred to the toluene layer, which was subjected to determination of cholinesterase inhibitory activity by counting with a liquid scintillation counter.
The cholinesterase inhibitory activity of the test compound was expressed in 50% inhibitory concentration (IC50).

T1 sequence (P37136 32-614): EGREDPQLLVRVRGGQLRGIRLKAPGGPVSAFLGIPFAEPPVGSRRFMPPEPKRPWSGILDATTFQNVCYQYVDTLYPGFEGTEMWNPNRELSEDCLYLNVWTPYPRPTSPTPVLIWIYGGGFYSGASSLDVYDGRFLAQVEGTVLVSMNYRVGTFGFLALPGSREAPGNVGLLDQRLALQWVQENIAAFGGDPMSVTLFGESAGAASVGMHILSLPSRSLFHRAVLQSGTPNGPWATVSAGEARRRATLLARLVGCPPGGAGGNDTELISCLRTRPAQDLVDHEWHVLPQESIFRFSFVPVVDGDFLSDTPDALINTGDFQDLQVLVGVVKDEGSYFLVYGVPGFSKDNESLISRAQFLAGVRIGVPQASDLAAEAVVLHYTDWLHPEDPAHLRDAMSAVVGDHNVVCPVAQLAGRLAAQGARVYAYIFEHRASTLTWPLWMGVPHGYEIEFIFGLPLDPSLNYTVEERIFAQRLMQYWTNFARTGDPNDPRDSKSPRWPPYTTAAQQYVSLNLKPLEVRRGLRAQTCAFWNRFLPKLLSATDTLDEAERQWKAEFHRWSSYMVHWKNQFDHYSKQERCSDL

Row | Structure (SMILES) | IC50 [nM]
3 | O=C(CCC1CCN(Cc2ccccc2)CC1)c1ccc2c(c1)CNCCO2 [3-A, 3-[1-(Phenylmethyl)piperidin-4-yl]-1-(2,3,4,5-tetrahydro-1,4-benzoxazepin-7-yl)-1-propanone dihydrochloride] | 17.5
4 | Cl.Cl.O=C(CCC1CCN(Cc2ccccc2)CC1)c1ccc2c(c1)CN(Cc1ccccc1)CCO2 [3-B, 1-[4-(Phenylmethyl)-2,3,4,5-tetrahydro-1,4-benzoxazepin-7-yl]-3-[1-(phenylmethyl)piperidin-4-yl]-1-propanone dihydrochloride] | 119
5 | O=C(CCC1CCN(Cc2ccccc2)CC1)c1ccc2c(c1)CN(Cc1ccc([N+](=O)[O-])cc1)CCO2 [8-5] | 12.7
6 | CC(=O)N1CCOc2ccc(C(=O)CCC3CCN(Cc4ccccc4)CC3)cc2C1 [Example 4, 1-(4-Acetyl-2,3,4,5-tetrahydro-1,4-benzoxazepin-7-yl)-3-[1-(phenylmethyl)piperidin-4-yl]-1-propanone hydrochloride] | 54.5
7 | COc1ccc(CN2CCOc3ccc(C(=O)CCC4CCN(Cc5ccccc5)CC4)cc3C2)cc1 [Example 5, 1-[4-(4-Methoxyphenylmethyl)-2,3,4,5-tetrahydro-1,4-benzoxazepin-7-yl]-3-[1-(phenylmethyl)piperidin-4-yl]-1-propanone dihydrochloride] | 69.6
8 | O=CN1CCOc2ccc(C(=O)CCN3CCN(Cc4ccccc4)CC3)cc2C1 [Example 6, 1-(4-Formyl-2,3,4,5-tetrahydro-1,4-benzoxazepin-7-yl)-3-[4-(phenylmethyl)piperazin-1-yl]-1-propanone dihydrochloride] | 107
